# Reference: ChEMBL document CHEMBL5143615, “Novel 2-aryl-4-aryloxyquinoline-based fungistatics for Mucor circinelloides. Biological evaluation of activity, QSAR and docking study” (Bioorg Med Chem Lett, 2022)
# The source made the active and inactive calls. No cut-off for these calls is given here.
# What was measured:
# Mucor circinelloides [1] = experiment: Antifungal activity against Mucor circinelloides R7B wild type strain assessed as reduction in spore germination at 150 ug/ml relative to control; format: functional; set-up: scale not given: the % may be the effect or the level left; conditions: dose 150 µg/ml
# Mucor circinelloides [2] = experiment: Antifungal activity against Mucor circinelloides M5 strain assessed as reduction in spore germination at 25 ug/ml relative to control; format: functional; set-up: scale not given: the % may be the effect or the level left; conditions: dose 25 µg/ml
# [3] = Cytotoxicity against mouse NIH/3T3 cells assessed as reduction in cell viability at 150 ug/ml incubated for 48 hrs by MTT assay (reference value: 93.8 +/- 4.9 %); format: toxicity, cell-based, NIH3T3; conditions: at 150 µg/mL, read-out: Activity
# Mucor circinelloides [4] = experiment: Antifungal activity against Mucor circinelloides M5 strain assessed as reduction in spore germination at 100 ug/ml relative to control; format: functional; set-up: scale not given: the % may be the effect or the level left; conditions: dose 100 µg/ml
# Mucor circinelloides [5] = experiment: Antifungal activity against Mucor circinelloides M5 strain assessed as reduction in spore germination at 150 ug/ml relative to control; format: functional; set-up: scale not given: the % may be the effect or the level left; conditions: dose 150 µg/ml
# Mucor circinelloides [6] = experiment: Antifungal activity against Mucor circinelloides R7B wild type strain assessed as few mycelia with several spores at 50 ug/ml by microscopic analysis; format: functional, organism-based; conditions: dose 50.0 µg/ml
# Mucor circinelloides [7] = experiment: Antifungal activity against Mucor circinelloides R7B wild type strain assessed as reduction in spore germination at 100 ug/ml relative to control; format: functional; set-up: scale not given: the % may be the effect or the level left; conditions: dose 100 µg/ml
# Mucor circinelloides [8] = experiment: Antifungal activity against Mucor circinelloides R7B wild type strain assessed as non-germinated spores at 100 to 150 ug/ml by microscopic analysis; format: functional, organism-based; conditions: dose 100-150 µg/ml
# [9] = target: T1, Lanosterol 14-alpha demethylase (Mus musculus, UniProt Q8K0C4); experiment: Inhibition of CYP51 in mouse NIH/3T3 cells assessed as specific enzymatic activity at 50 ug/ml incubated for 48 hrs by ELISA analysis; format: ADME, cell-based; conditions: nih/3t3, 48 h, dose 50 µg/ml
# T1 sequence (Q8K0C4 whole entry): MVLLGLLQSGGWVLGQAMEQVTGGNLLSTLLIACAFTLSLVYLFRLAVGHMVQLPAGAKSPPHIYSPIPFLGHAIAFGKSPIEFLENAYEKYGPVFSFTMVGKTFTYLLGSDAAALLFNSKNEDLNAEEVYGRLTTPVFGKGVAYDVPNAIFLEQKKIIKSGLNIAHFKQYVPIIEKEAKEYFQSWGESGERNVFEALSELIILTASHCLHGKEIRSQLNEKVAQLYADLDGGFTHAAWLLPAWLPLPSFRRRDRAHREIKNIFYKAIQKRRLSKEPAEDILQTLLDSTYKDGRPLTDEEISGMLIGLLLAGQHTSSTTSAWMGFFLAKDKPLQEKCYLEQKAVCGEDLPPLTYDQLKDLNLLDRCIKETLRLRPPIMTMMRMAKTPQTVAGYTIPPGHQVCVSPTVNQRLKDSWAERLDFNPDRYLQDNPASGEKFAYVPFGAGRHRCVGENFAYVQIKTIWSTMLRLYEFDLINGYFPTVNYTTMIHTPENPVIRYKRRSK
# Mucor circinelloides [10] = experiment: Antifungal activity against Mucor circinelloides R7B wild type strain assessed as complete absence of mycelia at 100 to 150 ug/ml by microscopic analysis; format: functional, organism-based; conditions: dose 100-150 µg/ml
# [11] = target: T1, Lanosterol 14-alpha demethylase; experiment: Inhibition of CYP51 in mouse NIH/3T3 cells assessed as specific enzymatic activity at 150 ug/ml incubated for 48 hrs by ELISA analysis; format: ADME, cell-based; conditions: nih/3t3, 48 h, dose 150 µg/ml
# Mucor circinelloides [12] = experiment: Antifungal activity against Mucor circinelloides M5 strain assessed as non-germinated spores at 100 to 150 ug/ml by microscopic analysis; format: functional, organism-based; conditions: dose 100-150 µg/ml
# [13] = Cytotoxicity against mouse NIH/3T3 cells assessed as reduction in cell viability at 25 ug/ml incubated for 48 hrs by MTT assay (reference value: 93.8 +/- 4.9 %); format: toxicity, cell-based, NIH3T3; conditions: at 25 µg/mL, read-out: Activity
# [14] = target: T1, Lanosterol 14-alpha demethylase; experiment: Inhibition of CYP51 in mouse NIH/3T3 cells assessed as specific enzymatic activity at 25 ug/ml incubated for 48 hrs by ELISA analysis; format: ADME, cell-based; conditions: nih/3t3, 48 h, dose 25 µg/ml
# [15] = Cytotoxicity against mouse NIH/3T3 cells assessed as reduction in cell viability at 100 ug/ml incubated for 48 hrs by MTT assay (reference value: 93.8 +/- 4.9 %); format: toxicity, cell-based, NIH3T3; conditions: at 100 µg/mL, read-out: Activity
# [16] = Cytotoxicity against mouse NIH/3T3 cells assessed as reduction in cell viability at 200 ug/ml incubated for 48 hrs by MTT assay (reference value: 93.8 +/- 4.9 %); format: toxicity, cell-based, NIH3T3; conditions: at 200 µg/mL, read-out: Activity
# [17] = target: T1, Lanosterol 14-alpha demethylase; experiment: Inhibition of CYP51 in mouse NIH/3T3 cells assessed as specific enzymatic activity at 200 ug/ml incubated for 48 hrs by ELISA analysis; format: ADME, cell-based; conditions: nih/3t3, 48 h, dose 200 µg/ml
# [18] = Cytotoxicity against mouse NIH/3T3 cells assessed as reduction in cell viability at 50 ug/ml incubated for 48 hrs by MTT assay (reference value: 93.8 +/- 4.9 %); format: toxicity, cell-based, NIH3T3; conditions: at 50 µg/mL, read-out: Activity
# Mucor circinelloides [19] = experiment: Antifungal activity against Mucor circinelloides R7B wild type strain assessed as non-germinated spores and undifferentiated hyphae at 50 ug/ml by microscopic analysis; format: functional, organism-based; conditions: dose 50.0 µg/ml
# Mucor circinelloides [20] = experiment: Antifungal activity against Mucor circinelloides R7B wild type strain assessed as reduction in spore germination at 50 ug/ml relative to control; format: functional; set-up: scale not given: the % may be the effect or the level left; conditions: dose 50 µg/ml
# Mucor circinelloides [21] = experiment: Antifungal activity against Mucor circinelloides M5 strain assessed as few mycelia with several spores at 50 ug/ml by microscopic analysis; format: functional, organism-based; conditions: dose 50.0 µg/ml
# Mucor circinelloides [22] = experiment: Antifungal activity against Mucor circinelloides R7B wild type strain assessed as reduction in spore germination at 25 ug/ml relative to control; format: functional; set-up: scale not given: the % may be the effect or the level left; conditions: dose 25 µg/ml
# Mucor circinelloides [23] = experiment: Antifungal activity against Mucor circinelloides M5 strain assessed as complete absence of mycelia at 100 to 150 ug/ml by microscopic analysis; format: functional, organism-based; conditions: dose 100-150 µg/ml
# [24] = target: T1, Lanosterol 14-alpha demethylase; experiment: Inhibition of CYP51 in mouse NIH/3T3 cells assessed as specific enzymatic activity at 100 ug/ml incubated for 48 hrs by ELISA analysis; format: ADME, cell-based; conditions: nih/3t3, 48 h, dose 100 µg/ml
# Mucor circinelloides [25] = experiment: Antifungal activity against Mucor circinelloides M5 strain assessed as non-germinated spores and undifferentiated hyphae at 50 ug/ml by microscopic analysis; format: functional, organism-based; conditions: dose 50.0 µg/ml
# Mucor circinelloides [26] = experiment: Antifungal activity against Mucor circinelloides M5 strain assessed as reduction in spore germination at 50 ug/ml relative to control; format: functional; set-up: scale not given: the % may be the effect or the level left; conditions: dose 50 µg/ml
# [27] = system: Trichophyton mentagrophytes; experiment: Antifungal activity against Trichophyton mentagrophytes clinical isolate 2 assessed as reduction in fungal growth by broth dilution method; format: functional
# Mucor circinelloides [28] = experiment: Antifungal activity against Mucor circinelloides M5 strain assessed as reduction in fungal growth by broth dilution method; format: functional
# Nannizzia gypsea [29] = experiment: Antifungal activity against Microsporum gypseum clinical isolate 1 assessed as reduction in fungal growth by broth dilution method; format: functional
# Epidermophyton floccosum = experiment: Antifungal activity against Epidermophyton floccosum clinical isolate 1 assessed as reduction in fungal growth by broth dilution method; format: functional
# Mucor circinelloides [30] = experiment: Antifungal activity against Mucor circinelloides R7B wild type strain assessed as reduction in fungal growth by broth dilution method; format: functional
# Aspergillus niger = experiment: Antifungal activity against Aspergillus niger clinical isolate 1 assessed as reduction in fungal growth by broth dilution method; format: functional
# Aspergillus nidulans [31] = experiment: Antifungal activity against Aspergillus nidulans clinical isolate 2 assessed as reduction in fungal growth by broth dilution method; format: functional
# Aspergillus nidulans [32] = experiment: Antifungal activity against Aspergillus nidulans clinical isolate 1 assessed as reduction in fungal growth by broth dilution method; format: functional
# Trichophyton rubrum [33] = experiment: Antifungal activity against Trichophyton rubrum clinical isolate 2 assessed as reduction in fungal growth by broth dilution method; format: functional
# Microsporum canis [34] = experiment: Antifungal activity against Microsporum canis clinical isolate 2 assessed as reduction in fungal growth by broth dilution method; format: functional
# [35] = system: Trichophyton mentagrophytes; experiment: Antifungal activity against Trichophyton mentagrophytes clinical isolate 3 assessed as reduction in fungal growth by broth dilution method; format: functional
# Trichophyton rubrum [36] = experiment: Antifungal activity against Trichophyton rubrum clinical isolate 1 assessed as reduction in fungal growth by broth dilution method; format: functional
# Microsporum canis [37] = experiment: Antifungal activity against Microsporum canis clinical isolate 3 assessed as reduction in fungal growth by broth dilution method; format: functional
# Microsporum canis [38] = experiment: Antifungal activity against Microsporum canis clinical isolate 1 assessed as reduction in fungal growth by broth dilution method; format: functional
# Nannizzia gypsea [39] = experiment: Antifungal activity against Microsporum gypseum clinical isolate 2 assessed as reduction in fungal growth by broth dilution method; format: functional
# [40] = system: Trichophyton mentagrophytes; experiment: Antifungal activity against Trichophyton mentagrophytes clinical isolate 1 assessed as reduction in fungal growth by broth dilution method; format: functional
structure (smiles),measurement,setting,value
O=[N+]([O-])c1ccc(Oc2cc(-c3cc(F)cc(F)c3)nc3ccccc23)cc1,Activity,Mucor circinelloides [1],5.8%
same,Activity,Mucor circinelloides [2],82.5%
same,"viability at 48 h, 150 ug/ml",[3],18.3%
same,Activity,Mucor circinelloides [4],11.2%
same,Activity,Mucor circinelloides [5],7.9%
same,Activity,Mucor circinelloides [6],Active
same,Activity,Mucor circinelloides [7],7.9%
same,Activity,Mucor circinelloides [8],Active
same,Activity,[9],11.21 U/mg
same,Activity,Mucor circinelloides [10],Active
same,Activity,[11],2.56 U/mg
same,Activity,Mucor circinelloides [12],Active
same,"viability at 48 h, 25 ug/ml",[13],94.5%
same,Activity,[14],16.7 U/mg
same,"viability at 48 h, 100 ug/ml",[15],84%
same,"viability at 48 h, 200 ug/ml",[16],15.5%
same,Activity,[17],0.4 U/mg
same,"viability at 48 h, 50 ug/ml",[18],91.8%
same,Activity,Mucor circinelloides [19],Active
same,Activity,Mucor circinelloides [20],28.3%
same,Activity,Mucor circinelloides [21],Active
same,Activity,Mucor circinelloides [22],83.9%
same,Activity,Mucor circinelloides [23],Active
same,Activity,[24],6.02 U/mg
same,Activity,Mucor circinelloides [25],Active
same,Activity,Mucor circinelloides [26],37.3%
OC(Cn1cncn1)(Cn1cncn1)c1ccc(F)cc1F [FLUCONAZOLE],Activity,Mucor circinelloides [1],4.8%
same,Activity,Mucor circinelloides [2],72.6%
same,"viability at 48 h, 150 ug/ml",[3],15.5%
same,Activity,Mucor circinelloides [5],6.7%
same,Activity,Mucor circinelloides [6],Active
same,MIC,[27],75 µg/mL
same,MIC,Mucor circinelloides [28],> 150 µg/mL
same,MIC,Nannizzia gypsea [29],50 µg/mL
same,Activity,Mucor circinelloides [8],Active
same,Activity,[9],7.18 U/mg
same,MIC,Epidermophyton floccosum,50 µg/mL
same,Activity,Mucor circinelloides [10],Active
same,MIC,Mucor circinelloides [30],150 µg/mL
same,MIC,Aspergillus niger,50 µg/mL
same,Activity,[11],1.25 U/mg
same,MIC,Aspergillus nidulans [31],50 µg/mL
same,Activity,Mucor circinelloides [12],Active
same,MIC,Aspergillus nidulans [32],50 µg/mL
same,"viability at 48 h, 25 ug/ml",[13],98.2%
same,MIC,Trichophyton rubrum [33],75 µg/mL
same,Activity,[14],12.8 U/mg
same,MIC,Microsporum canis [34],50 µg/mL
same,MIC,[35],75 µg/mL
same,"viability at 48 h, 100 ug/ml",[15],18.8%
same,"viability at 48 h, 200 ug/ml",[16],15.7%
same,Activity,[17],0 U/mg
same,"viability at 48 h, 50 ug/ml",[18],25%
same,MIC,Trichophyton rubrum [36],75 µg/mL
same,Activity,Mucor circinelloides [19],Active
same,Activity,Mucor circinelloides [20],28.2%
same,Activity,Mucor circinelloides [21],Active
same,Activity,Mucor circinelloides [22],83.3%
same,Activity,Mucor circinelloides [23],Active
same,MIC,Microsporum canis [37],50 µg/mL
same,Activity,[24],2.49 U/mg
same,MIC,Microsporum canis [38],50 µg/mL
same,Activity,Mucor circinelloides [25],Active
same,MIC,Nannizzia gypsea [39],50 µg/mL
same,Activity,Mucor circinelloides [26],30.4%
same,MIC,[40],75 µg/mL
COc1ccc(-c2cc(Oc3ccccc3)c3ccccc3n2)cc1OC,Activity,Mucor circinelloides [4],98.2%
same,Activity,Mucor circinelloides [7],98.1%
c1ccc(Oc2cc(-c3ccccc3)nc3ccccc23)cc1,Activity,Mucor circinelloides [4],97.9%
same,Activity,Mucor circinelloides [7],97.4%
Cc1cccc(-c2cc(Oc3ccc([N+](=O)[O-])cc3)c3ccccc3n2)c1,Activity,Mucor circinelloides [4],98.1%
same,Activity,Mucor circinelloides [7],98.1%
Fc1ccc(-c2cc(Oc3ccccc3)c3ccccc3n2)cc1,Activity,Mucor circinelloides [4],38.6%
same,Activity,Mucor circinelloides [7],39.8%
Fc1cc(F)cc(-c2ccc3ccccc3n2)c1,Activity,Mucor circinelloides [4],59.5%
same,Activity,Mucor circinelloides [7],57.5%
